Laboratory results: article PMC11054143, “^68Ga-DOTA-D-Alanine-BoroPro Radiotracer for Imaging of the Fibroblast Activation Protein in Malignant and Non-Malignant Diseases” (Pharmaceutics, 2024)

Target: T1, fibroblast activation protein (FAP) (Homo sapiens, UniProt Q12884)
T1 sequence (Q12884 1-760): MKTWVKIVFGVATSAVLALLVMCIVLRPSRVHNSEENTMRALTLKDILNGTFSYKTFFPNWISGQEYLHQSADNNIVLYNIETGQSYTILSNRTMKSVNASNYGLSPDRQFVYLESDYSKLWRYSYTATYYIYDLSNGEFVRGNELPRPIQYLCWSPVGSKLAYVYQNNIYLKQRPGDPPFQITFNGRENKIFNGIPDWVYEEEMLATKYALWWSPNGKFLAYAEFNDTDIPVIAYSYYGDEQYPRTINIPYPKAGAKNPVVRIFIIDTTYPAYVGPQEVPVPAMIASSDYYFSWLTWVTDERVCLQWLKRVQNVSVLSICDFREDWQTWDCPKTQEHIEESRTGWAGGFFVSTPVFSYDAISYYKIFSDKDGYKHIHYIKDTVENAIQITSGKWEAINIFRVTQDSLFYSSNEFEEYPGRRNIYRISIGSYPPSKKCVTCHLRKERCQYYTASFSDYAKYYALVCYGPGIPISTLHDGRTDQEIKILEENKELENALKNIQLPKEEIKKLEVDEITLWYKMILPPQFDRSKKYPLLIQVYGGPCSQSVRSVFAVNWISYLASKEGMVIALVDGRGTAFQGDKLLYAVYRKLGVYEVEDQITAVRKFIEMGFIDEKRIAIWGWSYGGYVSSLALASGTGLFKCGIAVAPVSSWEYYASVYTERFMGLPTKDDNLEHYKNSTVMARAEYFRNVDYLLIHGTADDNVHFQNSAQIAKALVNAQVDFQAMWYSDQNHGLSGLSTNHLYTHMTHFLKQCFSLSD
Test: unlabelled competitor ([…] concentrations) displacing […]-iFAP from HCT116 cells
Format: cell-based

Work on `C[C@H](NC(=O)c1ccc(NNC(=S)Nc2ccc(CC3CN(CC(=O)O)CCN(CC(=O)O)CCN(CC(=O)O)CCN3CC(=O)O)cc2)nc1)C(=O)N1CCC[C@@H]1B(O)O` (stereo partly drawn) [DOTA-iFAP, 2,2′,2″,2‴-(2-(4-(2-(5-(((S)-1-((S)-2-boronopyrrolidin-1-yl)-1-oxopropan-2-yl)carbamoyl)pyridin-2-yl)hydrazine-1-carbothioamido)benzyl)-1,4,7,10-tetraazacyclododecane-1,4,7,10-tetrayl)tetraacetic acid] yielded an IC50 of 0.57 nM.
